pIC50: −log10 of the molar value.
How the values were obtained:
[1] = test system: CaMKII; details: CaMKII inhibitor, US publication no. 20220098207; cited from earlier work
[2] = Storage stability of Formula (I) L-tartaric acid Form 2 co-crystal (long-term and accelerated); format: physicochemical; details: for Chemical Purity Assay: ASFB; for Crystallinity: to Form 2
Experimental: Formula (I) L-tartaric acid Form 2 co-crystal was evaluated for stability (Table 18 and Table 19). The co-crystal was stored in polyethylene double bags sealed with Nylon lock ties with two (2) 0.5 g silica gel desiccant packets in between, and inside a capped polyethylene container containing four (4) 33 g Silica Gel desiccant packs. The storage conditions were long-term condition 25° C./60% RH or accelerated condition 40° C./75% RH. The samples were analyzed for appearance, assay, related substances, chiral purity, water content and crystallinity.

[3] = as above; format: physicochemical; details: 25° C./60% RH, 0 months; to Form 2
[4] = Dynamic vapor sorption (DVS); format: physicochemical
Experimental: Approximately 10-20 mg of sample was placed into a mesh vapor sorption balance pan and loaded into a DVS Intrinsic or Advantage dynamic vapor sorption balance by Surface Measurement Systems. The sample was subjected to a ramping profile from 40-90% relative humidity (RH) at 10% increments, maintaining the sample at each step until a stable weight had been achieved (dm/dt 0.004%, minimum step length 30 minutes, maximum step length 200 or 500 minutes) at 25° C. After completion of the sorption cycle, the sample was dried using the same procedure to 0% RH and then a second sorption cycle back to 40% RH. Two cycles were performed. The weight change during the sorption/desorption cycles were plotted, allowing for the hygroscopic nature of the sample to be determined.

[5] = Competitive slurrying of free base Forms A, B and C; format: physicochemical
Experimental: Competitive slurries were carried out at 20° C. and 60° C. using the following procedure: 1.5 mL slurries of Formula (I) were prepared in t-BME, acetone, ethanol, and 2-Me THF at 60° C. in 2 mL screw cap vials. The slurries were syringe filtered (0.45 μm PTFE filter) after ca. 1 hour to obtain saturated Formula (I) solutions. Ca. 0.6 mL of saturated solution was added to ca. 10 mg of free base Forms A, B, and C to form slurries. The experiments were agitated at either ambient temperature (ca. 20° C.) and 60° C. for 48 h.
After 48 h the slurries were isolated by centrifugation (nylon, 0.22 μm) and analyzed by XRPD. Where mixtures were observed competitive slurrying was continued until mixtures were no longer observed (21 days).

[6] = Seven day stability of Formula (I) Form C; format: physicochemical
[7] = Storage stability of Formula (I) Form C (long-term and accelerated); format: physicochemical; details: for Chemical Purity Assay: anhydrous; for Crystallinity: to Form C
Experimental: Formula (I) Form C was evaluated for stability (Table 16 and Table 17). The Form C was stored in polyethylene double bags sealed with Nylon lock ties, and inside a capped polyethylene container at Wilmington PharmaTech Company. The storage conditions were long-term condition 25° C./60% RH, or accelerated condition 40° C./75% RH. The samples were analyzed for appearance, assay, related substances, chiral purity, water content and crystallinity.

[8] = ambient temperature and humidity

COc1ccnc(-c2cnc3ccc(-c4ccc(F)c(O[C@@H](C)Cn5cnnn5)c4)nn23)c1C#N [Example 321, (S)-2-(6-(3-((1-(1H-tetrazol-1-yl)propan-2-yl)oxy)-4-fluorophenyl)imidazo[1,2-b]pyridazin-3-yl)-4-methoxynicotinonitrile]
pIC50 [1]: > 8.00

COc1ccnc(-c2cnc3ccc(-c4ccc(F)c(O[C@@H](C)Cn5cnnn5)c4)nn23)c1C#N.COc1ccnc(-c2cnc3ccc(-c4ccc(F)c(O[C@@H](C)Cn5cnnn5)c4)nn23)c1C#N.O.O=C(O)C(O)C(O)C(=O)O.O=C(O)C(O)C(O)C(=O)O [Formula (I) L-Tartaric Acid Form 2]
Chiral Purity ([2]; 25° C./60% RH, 0 months): >99.9 area %
Description ([2]; 25° C./60% RH, 0 months): Off-white
Related Substances: Impurity #1 ([2]; 25° C./60% RH, 0 months): 0.25%
Total Impurities ([2]; 25° C./60% RH, 0 months): 0.25%
Water ([2]; 25° C./60% RH, 0 months): 1.59%
Chemical Purity Assay ([2]; 25° C./60% RH, 0 months): 99.3 wt %
Description ([2]; 25° C./60% RH, 3 months): Off-white
Related Substances: Impurity #1 ([2]; 25° C./60% RH, 3 months): 0.25%
Total Impurities ([2]; 25° C./60% RH, 3 months): 0.25%
Water ([2]; 25° C./60% RH, 3 months): 1.58%
Chemical Purity Assay ([2]; 25° C./60% RH, 3 months): 99.6 wt %
Crystallinity ([2]; 25° C./60% RH, 3 months): Conforms
Chiral Purity ([2]; 25° C./60% RH, 6 months): >99.9 area %
Description ([2]; 25° C./60% RH, 6 months): Off-white
Related Substances: Impurity #1 ([2]; 25° C./60% RH, 6 months): 0.26%
Total Impurities ([2]; 25° C./60% RH, 6 months): 0.26%
Water ([2]; 25° C./60% RH, 6 months): 1.55%
Chemical Purity Assay ([2]; 25° C./60% RH, 6 months): 99.3 wt %
Crystallinity ([2]; 25° C./60% RH, 6 months): Conforms
Chiral Purity ([2]; 40° C./75% RH, 0 months): >99.9 area %
Description ([2]; 40° C./75% RH, 0 months): Off-white
Related Substances: Impurity #1 ([2]; 40° C./75% RH, 0 months): 0.25%
Total Impurities ([2]; 40° C./75% RH, 0 months): 0.25%
Water ([2]; 40° C./75% RH, 0 months): 1.59%
Chemical Purity Assay ([2]; 40° C./75% RH, 0 months): 99.3 wt %
Crystallinity ([2]; 40° C./75% RH, 0 months): Conforms
Description ([2]; 40° C./75% RH, 3 months): Off-white
Related Substances: Impurity #1 ([2]; 40° C./75% RH, 3 months): 0.25%
Total Impurities ([2]; 40° C./75% RH, 3 months): 0.25%
Water ([2]; 40° C./75% RH, 3 months): 1.56%
Chemical Purity Assay ([2]; 40° C./75% RH, 3 months): 99.3 wt %
Crystallinity ([2]; 40° C./75% RH, 3 months): Conforms
Chiral Purity ([2]; 40° C./75% RH, 6 months): >99.9 area %
Description ([2]; 40° C./75% RH, 6 months): Off-white
Related Substances: Impurity #1 ([2]; 40° C./75% RH, 6 months): 0.25%
Total Impurities ([2]; 40° C./75% RH, 6 months): 0.25%
Water ([2]; 40° C./75% RH, 6 months): 1.60%
Chemical Purity Assay ([2]; 40° C./75% RH, 6 months): 100.0 wt %
Crystallinity ([2]; 40° C./75% RH, 6 months): Conforms
Crystallinity [3]: Conforms

COc1ccnc(-c2cnc3ccc(-c4ccc(F)c(O[C@@H](C)Cn5cnnn5)c4)nn23)c1C#N [Formula (I) Form C, (S)-2-(6-(3-((1-(1H-tetrazol-1-yl)propan-2-yl)oxy)-4-fluorophenyl)imidazo[1,2-b]pyridazin-3-yl)-4-methoxynicotinonitrile]
hygroscopicity by DVS ([4]; 25° C.): slightly hygroscopic
Post-DVS XRPD analysis ([4]; after DVS): Form C was retained
uptake (DVS) ([4]; at 80% RH): 0.3%
Time until Form C was only detected polymorph ([5]; 60° C., 2-Me THF): 2 days
Time until Form C was only detected polymorph ([5]; 60° C., Ethanol): 2 days
Time until Form C was only detected polymorph ([5]; 60° C., acetone): 2 days
Time until Form C was only detected polymorph ([5]; 60° C., t-BME): 15 days
relative stability of free base polymorphs ([5]; all solvents tested, 20° C. and 60° C.): most stable polymorph
Time until Form C was only detected polymorph ([5]; ambient (ca. 20° C.), 2-Me THF): 9 days
Time until Form C was only detected polymorph ([5]; ambient (ca. 20° C.), Ethanol): 8 days
Time until Form C was only detected polymorph ([5]; ambient (ca. 20° C.), acetone): 2 days
Time until Form C was only detected polymorph ([5]; ambient (ca. 20° C.), t-BME): 21 days
HPLC Purity ([6]; 7 day, 25° C./60% RH): 99.0 % area
XRPD Analysis ([6]; 7 day, 25° C./60% RH): Form C
HPLC Purity ([6]; 7 day, 40° C./75% RH): 99.0 % area
XRPD Analysis ([6]; 7 day, 40° C./75% RH): Form C
HPLC Purity ([6]; 7 day, 80° C.): 98.9 % area
XRPD Analysis ([6]; 7 day, 80° C.): Form C
HPLC analysis, change in purity after 7 day stability ([6]; 7 day, all conditions): no loss in purity
XRPD analysis after 7 day stability ([6]; 7 day, all conditions): retained
Input Purity ([6]; before storage): 98.8 % area
Chiral Purity ([7]; 25° C./60% RH, 0 months): >99.9 area %
Description ([7]; 25° C./60% RH, 0 months): Off-white
Related Substances: Impurity #1 ([7]; 25° C./60% RH, 0 months): 0.05%
Related Substances: Impurity #2 ([7]; 25° C./60% RH, 0 months): 0.18%
Total Impurities ([7]; 25° C./60% RH, 0 months): 0.23%
Water ([7]; 25° C./60% RH, 0 months): 0.29%
Chemical Purity Assay ([7]; 25° C./60% RH, 0 months): 100.1 wt %
Crystallinity ([7]; 25° C./60% RH, 0 months): Conforms
Chiral Purity ([7]; 25° C./60% RH, 12 months): >99.9 area %
Description ([7]; 25° C./60% RH, 12 months): Off-white
Related Substances: Impurity #1 ([7]; 25° C./60% RH, 12 months): 0.05%
Related Substances: Impurity #2 ([7]; 25° C./60% RH, 12 months): 0.18%
Total Impurities ([7]; 25° C./60% RH, 12 months): 0.23%
Water ([7]; 25° C./60% RH, 12 months): 0.32%
Chemical Purity Assay ([7]; 25° C./60% RH, 12 months): 99.4 wt %
Crystallinity ([7]; 25° C./60% RH, 12 months): Conforms
Chiral Purity ([7]; 25° C./60% RH, 24 months): >99.9 area %
Description ([7]; 25° C./60% RH, 24 months): Off-white
Related Substances: Impurity #1 ([7]; 25° C./60% RH, 24 months): 0.05%
Related Substances: Impurity #2 ([7]; 25° C./60% RH, 24 months): 0.18%
Total Impurities ([7]; 25° C./60% RH, 24 months): 0.23%
Water ([7]; 25° C./60% RH, 24 months): 0.35%
Chemical Purity Assay ([7]; 25° C./60% RH, 24 months): 99.4 wt %
Crystallinity ([7]; 25° C./60% RH, 24 months): Conforms
B. Unidentified Impurities (RRT: %), first listed ([7]; 40° C./75% RH, 0 months): 0.07%
B. Unidentified Impurities (RRT: %), second listed ([7]; 40° C./75% RH, 0 months): 0.05%
Chiral Purity ([7]; 40° C./75% RH, 0 months): >99.9 area %
Description ([7]; 40° C./75% RH, 0 months): Off-white
Related Substances: Impurity #1 ([7]; 40° C./75% RH, 0 months): 0.09%
Related Substances: Impurity #2 ([7]; 40° C./75% RH, 0 months): 0.19%
Related Substances: Impurity #3 ([7]; 40° C./75% RH, 0 months): <0.05%
Total Impurities ([7]; 40° C./75% RH, 0 months): 0.40%
Water ([7]; 40° C./75% RH, 0 months): 0.36%
Chemical Purity Assay ([7]; 40° C./75% RH, 0 months): 99.6 wt %
Crystallinity ([7]; 40° C./75% RH, 0 months): Conforms
B. Unidentified Impurities (RRT: %), first listed ([7]; 40° C./75% RH, 6 months): 0.06%
B. Unidentified Impurities (RRT: %), second listed ([7]; 40° C./75% RH, 6 months): 0.06%
Chiral Purity ([7]; 40° C./75% RH, 6 months): >99.9 area %
Description ([7]; 40° C./75% RH, 6 months): Off-white
Related Substances: Impurity #1 ([7]; 40° C./75% RH, 6 months): 0.08%
Related Substances: Impurity #2 ([7]; 40° C./75% RH, 6 months): 0.19%
Related Substances: Impurity #3 ([7]; 40° C./75% RH, 6 months): 0.05%
Total Impurities ([7]; 40° C./75% RH, 6 months): 0.44%
Water ([7]; 40° C./75% RH, 6 months): 0.15%
Chemical Purity Assay ([7]; 40° C./75% RH, 6 months): 99.3 wt %
Crystallinity ([7]; 40° C./75% RH, 6 months): Conforms
B. Unidentified Impurities (RRT: %), first listed ([7]; 40° C./75% RH, 12 months): 0.06%
Chiral Purity ([7]; 40° C./75% RH, 12 months): >99.9 area %
Description ([7]; 40° C./75% RH, 12 months): Off-white
Related Substances: Impurity #1 ([7]; 40° C./75% RH, 12 months): 0.08%
Related Substances: Impurity #2 ([7]; 40° C./75% RH, 12 months): 0.19%
Related Substances: Impurity #3 ([7]; 40° C./75% RH, 12 months): <0.05%
Total Impurities ([7]; 40° C./75% RH, 12 months): 0.33%
Water ([7]; 40° C./75% RH, 12 months): 0.49%
Chemical Purity Assay ([7]; 40° C./75% RH, 12 months): 99.6 wt %
Crystallinity ([7]; 40° C./75% RH, 12 months): Conforms

COc1ccnc(-c2cnc3ccc(-c4ccc(F)c(O[C@@H](C)Cn5cnnn5)c4)nn23)c1C#N.O=C(O)C(O)C(O)C(=O)O
form conversion on standing [8]: converted to L-tartaric acid co-crystal Form 2

From US20250145630A1, “POLYMORPHS OF A PYRIDINYLIMIDAZO[1,2-B]PYRIDAZINE” (Cardurion Pharmaceuticals, Inc., priority 2023, published 2025)
